Laboratory results taken from patent publication US20020177180A1, “pH-indicator based assay for selective enzymes” (ThermoGen, Inc., priority 1998, published 2002).
Where two headings read alike, the source gives them in different places.

Key:
[1] = cited from earlier work; for pKa: reported value
ThermoGen esterases [2] = assay: True substrate selectivity measurements (competitive, resorufin ester), esters as substrates of the ThermoGen esterases; type: biochemical
Procedure: Esterase solution (5 μL in 5 mM BES) was added to each well and the microplate was placed in the microplate reader, shaken for 5 s and the decrease in absorbance at 404 nm and the increase in absorbance at 574 nm were measured as often as permitted by the microplate reader, typically every 11 s. Data was collected for 20 minutes, at 25° C., in triplicate and was averaged. Activities were calculated from the equations above using the linear, initial portions of the curve.
However, it is faster to measure selectivity of each substrate as it competes against a third substrate, which we call a reference compound. The ratio of the two competitive reactions is the true selectivity. […] Since some substrates react rapidly while others react slowly, we require both fast-reacting and slow-reacting reference compounds. In some cases we replaced resorufin acetate with the slower reacting resorufin pivaloate or resorufin isobutyrate as reference compounds.
The true selectivity of the ThermoGen esterases toward different acyl chain length was determined using a competitive experiment. Resorufin esters were used as the competitive substrate as explained above and normalized the results to hexanoate =100, Table 7. The true selectivities were similar to the estimated selectivities.

ThermoGen esterases [3] = assay: Initial screening (pH indicator): esters as substrates of the ThermoGen esterases, statements for the esterases as a group; type: biochemical; conditions: esters 1-31, initial screening
Procedure: (§1) Initial screening measures the initial rate of hydrolysis of different esters. The rate of reaction was measured by monitoring the release of protons using a pH indicator, 4-nitrophenol. In this assay, the yellow color of the phenoxide disappears as the reaction proceeds. The amount of ester hydrolyzed can be measured quantitatively, as is known in the art.
(§2) To survey the substrate selectivity of the ThermoGen esterases, the ability of the enzymes to hydrolyze thirty-one different commercially-available esters, Scheme 1 (FIG. 9, Table 6).
To evaluate the potential of the ThermoGen esterases for enantioselective reactions, the initial rates of hydrolysis of the esterases were measured using twenty-one pairs of enantiomers, Scheme 2, FIG. 10 and Tables 8-12. The ratio of these initial rates is an estimated enantioselectivity.

esterase E011 = assay: Initial screening of ThermoGen esterases toward esters 1-31 (pH indicator), specific activity; type: biochemical; conditions: 1 mM substrate, pH 7.2, 7 vol % acetonitrile, 25° C.
Procedure: as §1

esterase E015 = assay: as above; type: biochemical; conditions: 1 mM substrate, pH 7.2, 7 vol % acetonitrile, 25° C.
Procedure: as §1, §2

esterase E020 = assay: as above; type: biochemical; conditions: 1 mM substrate, pH 7.2, 7 vol % acetonitrile, 25° C.
Procedure: as §1, §2

esterase E012 = assay: as above; type: biochemical; conditions: 1 mM substrate, pH 7.2, 7 vol % acetonitrile, 25° C.
Procedure: as §1, §2

esterase E006 = assay: as above; type: biochemical; conditions: 1 mM substrate, pH 7.2, 7 vol % acetonitrile, 25° C.
Procedure: as §1, §2

esterase E016 = assay: as above; type: biochemical; conditions: 1 mM substrate, pH 7.2, 7 vol % acetonitrile, 25° C.
Procedure: as §1, §2

esterase E014 = assay: as above; type: biochemical; conditions: 1 mM substrate, pH 7.2, 7 vol % acetonitrile, 25° C.
Procedure: as §1, §2

Procedure for physchem: The large difference in the extinction coefficients of the protonated and deprotonated forms (200 vs 18,000 M^−1 cm^−1 at 404 nm) gave good sensitivity. The extinction coefficients changed slightly upon addition of cosolvent and was determined experimentally.

SMILES	pKa [1]	quality as substrate of the ThermoGen esterases (in words) (ThermoGen esterases [3])	Specific activity, esterase E011 (esterase E011)	Specific activity, esterase E015 (esterase E015)	Specific activity, esterase E020 (esterase E020)	Specific activity, esterase E012 (esterase E012)	Specific activity, esterase E006 (esterase E006)	Specific activity, esterase E016 (esterase E016)	Specific activity, esterase E014 (esterase E014)	other results
O=S(=O)(O)CCCN1CCN(CCO)CC1 [EPPS, N-[2-hydroxylethyl]piperazine-N′-[3-propanesulfonic acid]]	8.0									
C=COC(=O)c1ccccc1 [Substrate 10, vinyl benzoate]										quality as substrate in true selectivity measurements (in words) (ThermoGen esterases [2]): poor substrates
O=[N+]([O-])c1ccc(O)cc1 [4-nitrophenol]	7.2									pKa upon addition of 10% ethanol ([1]; previously shown): 7.17
O=S1(=O)OC(c2ccc(O)c(Cl)c2)(c2ccc(O)c(Cl)c2)c2ccccc21 [chlorophenol red]	6.0									
O=S(=O)(O)CCN1CCOCC1 [MES, 2-[N-morpholino]ethanesulfonic acid]	6.1									
Cc1cc(O)c(C(C)C)cc1C1(c2cc(C(C)C)c(O)cc2C)OS(=O)(=O)c2ccccc21 [thymol blue]	9.2									
CCOC(=O)CN.Cl [Substrate 31]		usually poor substrates	0.1 mmol ester hydrolyzed/min/mg protein	<0.1 mmol ester hydrolyzed/min/mg protein	1.4 mmol ester hydrolyzed/min/mg protein	6.0 mmol ester hydrolyzed/min/mg protein	<0.1 mmol ester hydrolyzed/min/mg protein	13 mmol ester hydrolyzed/min/mg protein	<0.1 mmol ester hydrolyzed/min/mg protein	
COC(=O)CO [Substrate 20]		usually poor substrates	<0.1 mmol ester hydrolyzed/min/mg protein	<0.1 mmol ester hydrolyzed/min/mg protein	<0.2 mmol ester hydrolyzed/min/mg protein	<2 mmol ester hydrolyzed/min/mg protein	0.11 mmol ester hydrolyzed/min/mg protein	<2 mmol ester hydrolyzed/min/mg protein	<0.1 mmol ester hydrolyzed/min/mg protein	
C=COC(=O)C(C)(C)C [Substrate 11]		poor substrate for all the esterases	0.80 mmol ester hydrolyzed/min/mg protein	4.0 mmol ester hydrolyzed/min/mg protein	1.2 mmol ester hydrolyzed/min/mg protein	16 mmol ester hydrolyzed/min/mg protein	0.52 mmol ester hydrolyzed/min/mg protein	20 mmol ester hydrolyzed/min/mg protein	0.40 mmol ester hydrolyzed/min/mg protein	
C=COC(=O)C(C)(C)C [Substrate 11, vinyl pivaloate]										quality as substrate in true selectivity measurements (in words) (ThermoGen esterases [2]): poor substrates
O=c1ccc2nc3ccc(O)cc3oc-2c1 [resorufin alcohol, resorufin]										pKa (physchem): 8.15
CC(=O)Oc1ccccc1 [Substrate 26]		best substrates	270 mmol ester hydrolyzed/min/mg protein	320 mmol ester hydrolyzed/min/mg protein	390 mmol ester hydrolyzed/min/mg protein	30 mmol ester hydrolyzed/min/mg protein	300 mmol ester hydrolyzed/min/mg protein	190 mmol ester hydrolyzed/min/mg protein	150 mmol ester hydrolyzed/min/mg protein	
